The target of the test is T1, human CRTH2 (Homo sapiens, UniProt Q9Y5Y4).
T1 construct: expressed in transfected cells; host or cells: CHO-K1
T1 sequence (Q9Y5Y4 1-395): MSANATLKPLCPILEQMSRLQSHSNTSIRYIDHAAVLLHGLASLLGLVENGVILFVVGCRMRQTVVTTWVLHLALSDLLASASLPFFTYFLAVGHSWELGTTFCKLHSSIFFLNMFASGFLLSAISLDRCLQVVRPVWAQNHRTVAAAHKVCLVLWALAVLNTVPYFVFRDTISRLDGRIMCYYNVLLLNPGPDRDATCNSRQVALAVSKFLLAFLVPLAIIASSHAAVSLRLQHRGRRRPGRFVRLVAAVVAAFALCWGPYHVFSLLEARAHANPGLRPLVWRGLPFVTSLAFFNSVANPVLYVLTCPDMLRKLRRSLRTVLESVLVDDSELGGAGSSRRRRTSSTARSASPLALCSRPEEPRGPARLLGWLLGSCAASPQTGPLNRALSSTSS
As to the kind of experiment: Human CRTH2 Receptor Binding Assay (whole cell, [3H]ramatroban competition). The settings on record: CHO-K1 cells expressing human CRTH2 and G-alpha16; 20 nM [3H]ramatroban; 1 hour, room temperature. The source says: A whole cell receptor binding assay using [^3H]ramatroban as the competing radioactive ligand was employed to evaluate the compound binding activity to human CRTH2. The radioactive ligand [^3H]ramatroban was synthesized according to Sugimoto et. al. (Eur. J. Pharmacol. 524, 30-37, 2005) to a specific activity of 42 Ci/mmol.
A cell line stably expressing human CRTH2 was established by transfecting CHO-K1 cells with two mammalian expression vectors that harbored human CRTH2 and G-alpha16 cDNAs, respectively, using FuGene® 6 transfection reagent (from Roche). Stable clones expressing CRTH2 were selected by staining each clone with BM16 (BD Pharmingen™ from BD Biosciences, a division of Becton, Dickinson and Company), which is a rat monoclonal antibody to human CRTH2. The cells were maintained as monolayer cultures in Ham's F-12 medium containing 10% fetal bovine serum, 100 units/mL penicillin, 100 μg/mL streptomycin, 2 mM glutamine, 0.5 mg/mL G418 (geneticin) for CRTH2, and 0.2 mg/mL hygromycin-B (for G-alpha 16). For whole cell receptor binding assay, the monolayer cells were rinsed once with PBS (phosphate buffered saline), dissociated using ethylenediaminetetraacetate (Versene™ EDTA from Lonza Inc.), and suspended in PBS containing 10 mM MgCl2 and 0.06% BSA (bovine serum albumin) at 1.5×10^6 cells/mL.
The binding reactions (0.2 mL) were performed in 96-well plates at room temperature in PBS containing 1.5×10^5 cells, 10 mM MgCl2, 0.06% BSA, 20 nM [^3H]ramatroban, and test compound at various concentrations. After 1 hour of binding reactions, the cells were harvested on GF™/B filter microplates (microtiter plates with embedded glass fiber from PerkinElmer, Inc.) and washed 5 times with PBS using a Filtermate™ Harvester (a cell harvester that harvests and washes cells from microplates from PerkinElmer, Inc.). The radioactivities bound to the cells were determined using a microplate scintillation counter (TopCount® NXT, from PerkinElmer, Inc.) after adding 50 μL of Microscint™ 20 scintillation fluid (from PerkinElmer, Inc.) to each well of the filter plates. The radioactivity from non-specific binding was determined by replacing compound with 10 μM of 15(R)-15-methyl PGD2 (from Cayman Chemical Company) in the reaction mixtures. The radioactivity bound to the cells in the absence of compound (total binding) was determined by replacing compound with 0.25% of DMSO (dimethyl sulfoxide) in the reaction mixture. Specific binding data were obtained by subtracting the radioactivity of non-specific binding from each binding data.
The IC50 value is defined as the concentration of the tested compound that is required for 50% inhibition of total specific binding. In order to calculate the IC50 value, the percent inhibition data were determined for 7 concentrations for each compound. The percent inhibition for a compound at each concentration was calculated according to the following formula, [1−(specific binding in the presence of compound)/(total specific binding)]×100. The IC50 value was then obtained by fitting the percent inhibition data to a sigmoidal dose-response (4 parameter logistic) model in the XLfit® software Excel add-in program [from ID Business Solutions Ltd., model 205, where F(x)=(A+(B−A)/(1+((C/x)^D)))].

For the compound `CCS(=O)(=O)c1ccc(Oc2cc(CC(=O)O)c(C)c3ccc(F)cc23)nc1` [Example 6-1, [4-(5-ethanesulfonyl-pyridin-2-yloxy)-6-fluoro-1-methyl-naphthalen-2-yl]-acetic acid], the IC50 (in general, the concentration at which inhibition is half-maximal) amounted to 32.1 nM.

In turn, `Cc1cc(S(C)(=O)=O)ccc1Oc1cc(CC(=O)O)cc2ccc(F)cc12` [Example 1-6, [6-fluoro-4-(4-methanesulfonyl-2-methyl-phenoxy)-naphthalen-2-yl]-acetic acid] registered an IC50 of 7.1 nM.

`Cc1c(CC(=O)O)cc2ccc(F)cc2c1Oc1ccc(S(C)(=O)=O)cc1` [Example 2-2, [6-fluoro-4-(4-methanesulfonyl-phenoxy)-3-methyl-naphthalen-2-yl]-acetic acid] registered an IC50 of 2.3 nM.

As for `CCS(=O)(=O)c1ccc(Oc2cc(CC(=O)O)cc3ccc(OC)cc23)cc1` [Example 1-15, [4-(4-Ethanesulfonyl-phenoxy)-6-methoxy-naphthalen-2-yl]-acetic acid], the concentration for half-maximal inhibition (IC50) amounted to 5.3 nM.

On to `CCS(=O)(=O)c1ccc(Oc2c(C3CC3)c(CC(=O)O)cc3ccc(F)cc23)nc1` [Example 18-1, [3-Cyclopropyl-4-(5-ethanesulfonyl-pyridin-2-yloxy)-6-fluoro-naphthalen-2-yl]-acetic acid], for which the IC50 came to 6.7 nM.

Regarding `CCCS(=O)(=O)c1ccc(Oc2c(C)c(CC(=O)O)cc3ccc(F)cc23)cc1` [Example 2-22, {6-fluoro-3-methyl-4-[4-(propane-1-sulfonyl)-phenoxy]-naphthalen-2-yl}-acetic acid], the IC50 came to 2.4 nM.

In turn, `CCc1cc(S(=O)(=O)CC)cnc1Oc1c(C)c(CC(=O)O)cc2ccc(F)cc12` [Example 20-1, [4-(5-Ethanesulfonyl-3-ethyl-pyridin-2-yloxy)-6-fluoro-3-methyl-naphthalen-2-yl]-acetic acid] had an IC50 of 2.9 nM.

For `CCS(=O)(=O)c1ccc(Oc2cc(CC(=O)O)cc3cccc(F)c23)cc1` [Example 1-22, [4-(4-Ethanesulfonyl-phenoxy)-5-fluoro-naphthalen-2-yl]-acetic acid], the IC50 was 5.4 nM.

For the compound `CCS(=O)(=O)c1ccc(Oc2cc(CC(=O)O)c(F)c3ccc(F)cc23)nc1` [Example 4-2, [1,6-difluoro-4-(5-ethanesulfonyl-pyridin-2-yloxy)-naphthalen-2-yl]-acetic acid], the IC50 was 21.3 nM.

In turn, `CCS(=O)(=O)c1ccc(Oc2cc(CC(=O)O)cc3ccc(S(C)(=O)=O)cc23)cc1` [Example 16-1, [4-(4-Ethanesulfonyl-phenoxy)-6-methanesulfonyl-naphthalen-2-yl]-acetic acid] had an IC50 of 91.5 nM.

With `Cc1c(CC(=O)O)cc2ccc(F)cc2c1Oc1ccc(S(=O)(=O)N(C)C)cc1` [Example 2-37, [4-(4-dimethylsulfamoyl-phenoxy)-6-fluoro-3-methyl-naphthalen-2-yl]-acetic acid], the concentration for half-maximal inhibition (IC50) is 1.9 nM.

The compound `CS(=O)(=O)c1ccc(Oc2cc(CC(=O)O)c(F)c3ccc(F)cc23)nc1` [Example 4-1, [1,6-difluoro-4-(5-methanesulfonyl-pyridin-2-yloxy)-naphthalen-2-yl]-acetic acid] displayed a half-maximal inhibitory concentration (IC50) of 7.9 nM.

With `Cc1c(CC(=O)O)cc2ccc(F)cc2c1Oc1ccc(S(=O)(=O)N2CC3(COC3)C2)cc1` [Example 2-43, {6-fluoro-3-methyl-4-[4-(2-oxa-6-aza-spiro[3.3]heptane-6-sulfonyl)-phenoxy]-naphthalen-2-yl}-acetic acid], the IC50 was 1.8 nM.

`COc1ccc(S(=O)(=O)c2ccc(Oc3c(C)c(CC(=O)O)cc4ccc(F)cc34)cc2)cc1` [Example 2-30, {6-fluoro-4-[4-(4-methoxy-benzenesulfonyl)-phenoxy]-3-methyl-naphthalen-2-yl}-acetic acid] registered a half-maximal inhibitory concentration (IC50) of 2.7 nM.

With `Cc1c(CC(=O)O)cc2ccc(F)cc2c1Oc1ccc(S(=O)(=O)c2ccccc2)cc1` [Example 2-28, [4-(4-benzenesulfonyl-phenoxy)-6-fluoro-3-methyl-naphthalen-2-yl]-acetic acid], the IC50 came to 5 nM.

In turn, `CCS(=O)(=O)c1ccc(Oc2cc(CC(=O)O)cc3ccc(OC(F)(F)F)cc23)nc1` [Example 1-18, [4-(5-Ethanesulfonyl-pyridin-2-yloxy)-6-trifluoromethoxy-naphthalen-2-yl]-acetic acid] gave a concentration for half-maximal inhibition (IC50) of 2.6 nM.

With `CS(=O)(=O)c1ccc(Sc2cc(CC(=O)O)cc3ccc(F)cc23)cc1` [Example 9-1, [6-fluoro-4-(4-methanesulfonyl-phenylsulfanyl)-naphthalen-2-yl]-acetic acid], the IC50 was 7.5 nM.

Consider `CCS(=O)(=O)c1ccc(Oc2cc(CC(=O)O)cc3cc(F)ccc23)cc1` [Example 1-20, [4-(4-Ethanesulfonyl-phenoxy)-7-fluoro-naphthalen-2-yl]-acetic acid], for which the concentration for half-maximal inhibition (IC50) was determined as 18.1 nM.

Compound `CCS(=O)(=O)c1ccc(Oc2cc(CC(=O)O)cc3ccc(OC)cc23)nc1` [Example 1-21, [4-(5-Ethanesulfonyl-pyridin-2-yloxy)-6-methoxy-naphthalen-2-yl]-acetic acid] registered an IC50 of 4.7 nM.

With `CCS(=O)(=O)c1ccc(Oc2cc(CC(=O)O)cc3ccc(C(F)(F)F)cc23)nc1` [Example 1-16, [4-(5-Ethanesulfonyl-pyridin-2-yloxy)-6-trifluoromethyl-naphthalen-2-yl]-acetic acid], the IC50 was 19.1 nM.

The compound `CCS(=O)(=O)c1ccc(Oc2c(C)c(CC(=O)O)cc3ccc(F)cc23)cc1F` [Example 2-17, [4-(4-ethanesulfonyl-3-fluoro-phenoxy)-6-fluoro-3-methyl-naphthalen-2-yl]-acetic acid] had a concentration for half-maximal inhibition (IC50) of 3.7 nM.

`CCS(=O)(=O)c1ccc(Oc2c(F)c(CC(=O)O)cc3ccc(F)cc23)nc1` [Example 5-1, [4-(5-ethanesulfonyl-pyridin-2-yloxy)-3,6-difluoro-naphthalen-2-yl]-acetic acid]: the IC50 stood at 3.1 nM.

In the case of `Cc1c(CC(=O)O)cc2ccc(F)cc2c1Oc1ccc(S(=O)(=O)N2CCCC2)cc1` [Example 2-38, {6-fluoro-3-methyl-4-[4-(pyrrolidine-1-sulfonyl)-phenoxy]-naphthalen-2-yl}-acetic acid], the half-inhibitory concentration (IC50) was found to be 2.2 nM.

On to `Cc1c(CC(=O)O)cc2ccc(Cl)cc2c1Oc1ccc(C#N)cc1` [Example 2-45, [6-chloro-4-(4-cyano-phenoxy)-3-methyl-naphthalen-2-yl]-acetic acid], for which the IC50 came out at 134 nM.

On to `CCS(=O)(=O)c1ccc(Oc2c(C)c(CC(=O)O)cc3ccc(F)cc23)cc1C` [Example 2-14, [4-(4-ethanesulfonyl-3-methyl-phenoxy)-6-fluoro-3-methyl-naphthalen-2-yl]-acetic acid], for which the 50% inhibitory concentration (IC50) is 1.6 nM.

In the case of `Cc1c(CC(=O)O)cc2ccc(F)cc2c1Oc1ccc(S(=O)(=O)C2CCCC2)cc1` [Example 2-26, [4-(4-cyclopentanesulfonyl-phenoxy)-6-fluoro-3-methyl-naphthalen-2-yl]-acetic acid], the IC50 came to 2.3 nM.

Compound `Cc1cc(S(C)(=O)=O)cnc1Oc1c(C)c(CC(=O)O)cc2ccc(F)cc12` [Example 2-34, [6-fluoro-4-(5-methanesulfonyl-3-methyl-pyridin-2-yloxy)-3-methyl-naphthalen-2-yl]-acetic acid] yielded a concentration for half-maximal inhibition (IC50) of 3.1 nM.

Regarding `CCS(=O)(=O)c1ccc(Oc2c(C)c(CC(=O)O)cc3ccc(F)cc23)c(C)c1` [Example 2-10, [4-(4-ethanesulfonyl-2-methyl-phenoxy)-6-fluoro-3-methyl-naphthalen-2-yl]-acetic acid], the 50% inhibitory concentration (IC50) was 7.3 nM.
